From ChEMBL document CHEMBL2311391, “Novel inhibitors of protein arginine deiminase with potential activity in multiple sclerosis animal model” (J Med Chem, 2013) come the findings set out here.

Data set [1] is filed under the species Mus musculus. Nature of the data set: Toxicity in mouse at 20 mg as single dose. Format: organism-based. Particulars: in vivo.
For data set [2], the species on record is Mus musculus. Nature of the data set: Toxicity in mouse at 10 mg for 5 days. Format: organism-based. Particulars: in vivo, 120 h.
The species named for data set [3] is Mus musculus. Nature of the data set: Antiinflammatory activity against MOG peptide-induced experimental autoimmune encephalomyelitis mouse model assessed as CD3 marker measured on day 24 after 2 weeks of treatment (reference value: 4.8 +/- 0.19 /mm'2). The data set is classed as functional.

Take `CC1(C)NC(=O)N(CN2CCNCC2)C1=O`: the figures for the Activity result in data set [1], in data set [2] and in data set [3] were “Non-toxic”, “Non-toxic” and 3.8 mm2, respectively.
